In patent publication US10730850B2, “Pyridinylmethyl carbamimidoylcarbamate derivatives and their use as AOC3 inhibitors” (Boehringer Ingelheim International GmbH, priority 2016, dated 2020):
Read-outs that look alike come from different tables or passages of the source.

Experiments:
[1] = In vivo clearance experiment (biliary clearance); details: rat, bile collected 0-180 min
Description: Bile flow is continuously collected from animal for 4 hours, including the 1 hour post-surgery recovery period. For short biliary excretion study, blood samples are taken at 0, 5 and 180 min and bile samples collection intervals are: 10 min before dosing and 0-180 min. All blood and bile samples are collected from 2 rats and are not pooled. Bile is kept at 4° C. during the collecting intervals and immediately frozen in dry ice after the collecting period is over.
As biliary clearance is expected to be impaired in patients with liver diseases (Clarke J. D. et. al J. Pharm. Exp. Ther. 348:452-458; Ferslew B. C. et al. Clin. Pharm. & Ther. Vol 97(4) XX), a reduced biliary clearance results in a better predictibitlity of the pharmacokinetics and assessment of safety margins in this patient population.

AOC3 = AOC3 (Homo sapiens (Human), UniProt Q16853); experiment: MAO-Glo AOC3 assay (recombinant CHO cells overexpressing AOC3); type: biochemical
Excerpt: The MAO-Glo™ Assay (commercial available from PROMEGA, # V1402) provides a sensitive method for the measurement of monoamine oxidase (MAO) activity (Valley, M. P. et al., 2006, Anal. Biochem. 359: 238-246) from a variety of tissues, biofluids or recombinant expressed or purified enzymes. As substrate a derivate of the beetle luciferin ((4S)-4,5-dihydro-2-(6-hydroxybenzothiazolyl)-4-thiazole-carboxylic acid) is used, which is oxidized at a primary amine moiety. After a spontaneous elimination and a catalyzed esterase reaction, the turnover of the luciferine by the luciferase is recorded as a signal of AOC3 activity.
An aliquot of 3 μL of the compound dilution is added to a 384 well plate (Optiplate, PS, flat bottom, white, PERKIN ELMER, #6007290) with a final DMSO concentration of 6.6%. Recombinant CHO cells, overexpressing the human (1500 cells/well), mouse (1000 cells/well) or rat (500 cells/well) AOC3 enzyme are diluted in reaction buffer and added in a volume of 15 μL to the wells. After incubation for 20 minutes at 37° C., 2 μL of MAO substrate (dissolved in DMSO at 16 mM, adjusted to assay concentration in reaction buffer to a final assay concentration of 20 μM) is added and further incubated for 60 minutes at 37° C. The turnover of the substrate is determined by the addition of 20 μL of the detection-mix which was generated by the addition of reconstitution buffer with esterase (PROMEGA, # V1402) to the luciferine detection reagent (PROMEGA, # V1402). After an incubation period of 20 minutes, the luminescent signal is measured with Envision 2104 Multilabel Reader (PERKIN ELMER).
In the following table the activity expressed as IC50 (nM) of compounds according to the invention is presented wherein the IC50 values are determined in the MAO-Glo™ AOC3 assay as described hereinbefore. The term “Example” refers to the example numbers according to the following experimental section.

hepatocytes = experiment: Metabolic stability assay in hepatocyte suspension; type: in vitro ADME; details: 1 μM test compound
Description: The metabolic degradation of the test compound is assayed in a hepatocyte suspension. Hepatocytes (typically cryopreserved) are incubated in an appropriate buffer system (e.g. Dulbecco's modified eagle medium plus 3.5 μg glucagon/500 mL, 2.5 mg insulin/500 mL and 3.75 mg/500 mL hydrocortison) containing 5% species serum. Following a (typically) 30 min preincubation in an incubator (37° C., 10% CO2) 5 μl of test compound solution (80 μM; from 2 mM in DMSO stock solution diluted 1:25 with medium) are added into 395 μl hepatocyte suspension (cell density in the range 0.25-5 Mio cells/mL, typically 1 Mio cells/mL; final concentration of test compound 1 μM, final DMSO concentration 0.05%). The cells are incubated for six hours (incubator, orbital shaker) and samples (25 μl) are taken at 0, 0.5, 1, 2, 4 and 6 hours. Samples are transferred into acetonitrile and pelleted by centrifugation (5 min). The supernatant is transferred to a new 96-deepwell plate, evaporated under nitrogen and resuspended. Decline of parent compound is analyzed by HPLC-MS/MS
CLint is calculated as follows CL_INTRINSIC=Dose/AUC=(C0/CD)/(AUD+clast/k)×1000/60. C0: initial concentration in the incubation [μM], CD: cell density of vital cells [10e6 cells/mL], AUD: area under the data [μM×h], clast: concentration of last data point [μM], k: slope of the regression line for parent decline [h-1].
The calculated in vitro hepatic intrinsic clearance can be scaled up to the intrinsic in vivo hepatic Clearance and used to predict hepatic in vivo blood clearance (CL) by the use of a liver model (well stirred model). CL_INTRINSIC_INVIVO [ml/min/kg]=(CL_INTRINSIC [μL/min/10e6 cells]×hepatocellularity [10e6 cells/g liver]×liver factor [g/kg bodyweight])/1000 CL [ml/min/kg]=CL_INTRINSIC_INVIVO [ml/min/kg]×hepatic blood flow [ml/min/kg]/(CL_INTRINSIC_INVIVO [ml/min/kg]+hepatic blood flow [ml/min/kg])

[2] = compounds of the present invention
[3] = Table 2, compounds of the present invention, read-out: IC50
[4] = Table 3, compounds of the present invention
[5] = comparative compounds of EP 2 695 881

Sequence of AOC3 (Q16853 whole entry): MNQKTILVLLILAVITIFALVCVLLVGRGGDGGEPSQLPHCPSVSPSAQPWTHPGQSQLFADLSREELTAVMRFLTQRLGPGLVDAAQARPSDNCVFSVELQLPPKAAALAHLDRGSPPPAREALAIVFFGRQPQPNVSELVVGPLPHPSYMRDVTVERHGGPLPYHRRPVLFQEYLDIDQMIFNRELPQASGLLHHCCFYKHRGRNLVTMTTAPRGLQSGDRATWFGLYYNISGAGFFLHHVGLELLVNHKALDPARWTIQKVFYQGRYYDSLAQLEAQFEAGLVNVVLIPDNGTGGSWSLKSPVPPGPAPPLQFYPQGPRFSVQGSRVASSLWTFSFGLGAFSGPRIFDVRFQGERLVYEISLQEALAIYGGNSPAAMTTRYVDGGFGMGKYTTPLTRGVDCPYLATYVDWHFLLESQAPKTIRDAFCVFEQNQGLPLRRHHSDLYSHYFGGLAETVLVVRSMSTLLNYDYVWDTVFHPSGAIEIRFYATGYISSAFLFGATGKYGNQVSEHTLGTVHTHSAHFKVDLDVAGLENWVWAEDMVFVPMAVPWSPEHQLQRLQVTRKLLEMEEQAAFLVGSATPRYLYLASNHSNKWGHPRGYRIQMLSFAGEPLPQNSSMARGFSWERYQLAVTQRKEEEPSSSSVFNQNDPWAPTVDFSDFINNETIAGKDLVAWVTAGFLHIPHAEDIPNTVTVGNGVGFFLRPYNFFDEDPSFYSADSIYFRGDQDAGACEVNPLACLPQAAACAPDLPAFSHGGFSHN

Row | Compound | Cl (biliary clearance) [1, 2] | IC50 (AOC3; Table 1, read-out: AOC3 IC50) | IC50 (AOC3; [3]) | QH (hepatocytes; [4]) | QH (hepatocytes; Table 4) | Cl (biliary clearance) [1, 5]
1 | N=C(N)NC(=O)OCc1ccnc(N2CCN(c3ccc(C(N)=O)cc3)CC2)c1F [Example 1.084] | 2.2% | 3 nM | 2.8 nM | 23% | 10% | 
2 | CC(=O)N1CCC(C2CN(c3cccc(COC(=O)NC(=N)N)c3F)C2)CC1 [559 (293), reference compound] |  |  |  |  |  | 10.3%
3 | CC(=O)N1CCC(COc2ncc(-c3cccc(COC(=O)NC(=N)N)c3F)cn2)CC1 [11 (221), reference compound] |  |  |  |  |  | 22.4%
4 | COc1ncc(N2CCN(c3nccc(COC(=O)NC(=N)N)c3F)CC2)cn1 [Example 1.072] | 1.2% | 4 nM | 4.1 nM | 3.7% | 4% | 
